From patent EP0311322B1, “Pyridine or pyridazine derivatives as cardio-protective agents and for the treatment of ischemic disease, and process for their preparation” (FUJISAWA PHARMACEUTICAL CO., LTD., priority 1987, dated 1989) come the findings set out here.

The test system of experiment [1] is Male SD rats. Description: Test 2: left coronary artery occlusion (5 min) and reperfusion (10 min) in anesthetized rats, incidence of VT, VF and mortality. Format: in vivo. The note with it: 10 min before occlusion. The protocol: Male SD rats weighing 270-340 g were anesthetized with sodium pentobarbital. The chest was opened, and then a thread was placed around the left coronary artery near the origin. Both ends of the thread were passed through a small plastic tube. After standing for 5 minutes, test compound was administered intravenously. After 10 minutes, the left coronary artery was occluded for 5 minutes by pulling the thread and pressing the plastic tube to the artery and then reperfusion was achieved by releasing the occlusion for 10 minutes. Electrocardiograms were recorded and analyzed for checking inhibitory rate of incidence of ventricular tachycardia (VT) and ventricular fibrillation (VF) in comparison with control group, and inhibitory rate of mortality as compared with control group was also calculated. 11-18 rats were used for each test group.

Experiment [2] relates to Male SD rats. The experiment can be described thus: Test 3: myocardial infarction induced by DL-isoproterenol hydrochloride in rats, mortality and myocardial ATP content. The class given is in vivo. To be noted: dose 1.0 mg/kg intraperitoneally, DL-isoproterenol hydrochloride 120 mg/kg subcutaneously. How it is done:
Ten male SD rats weighing 140-170 g were used for each group. Test compound was administered intraperitoneally, and then myocardial infarction was induced by administering DL-isoproterenol hydrochloride (120 mg/kg) subcutaneously. After 24 hours, mortality was examined. Survival rats were anesthetized and their hearts were taken out and frozen immediately for the measurement of myocardial ATP content.

For a further experiment, the system named is male ddY mice. The experiment can be described thus: Test 4: foot edema after occlusion of the right leg with a rubber band and release in mice. To be noted: 20 min occlusion, 20 min after cutting the band. Format: in vivo. The protocol:
Five male ddY mice weighing 27-32 g were used for each group. After test compound was administered intravenously, the right leg was occluded by binding 10 times a rubber band (diameter : 42 mm) round it. After 20 minutes later, the rubber band was cut and thickness of foot pad was measured by a dial gage immediately and 20 minutes after cutting the band. The difference of these two values was regarded as edema.

The subject of experiment [3] is heart isolated from male guinea-pig. Description: Test 1: isolated guinea-pig heart perfused in the Langendorff mode, global ischemia (35 min) and reperfusion (40 min). The note with it: for % change from control Cardiac depression (pre-ischemia) LVSP x HR: 15 min before ischemia; for % change from control recovery of ATP content (% increase): after 35 min ischemia and 40 min reperfusion. How it is done:
The heart was isolated from male guinea-pig weighing 550-650 g and was perfused in the Langendorff mode at 37°C at a constant perfusion pressure of 80 cm H₂O. The perfusion medium was Krebs-Henseleit bicarbonate solution containing 11 mM glucose. The solution was equilibrated with 95% O₂ and 5% CO₂ gas mixture at pH 7.4. A latex balloon was placed in the left ventricular cavity and then left ventricular systolic (LVSP) and diastolic (LVDP) pressure were measured. Heart rate (HR) was triggered by the pulse pressure. Coronary flow was monitored with electromagnetic flow probe placed on the aorta.
The heart was perfused for 45 min. with the perfusion medium and then for 15 min. with the perfusion medium containing the test compound. The heart was then subjected to the global ischemia by stopping the perfusion. After 35 min. of ischemia, the heart was reperfused by the perfusion medium containing no test compound. At the end of 40 min. reperfusion, the cardiac function was monitored. The heart was immidiately frozen for the estimation of ATP content.

The mark [4] stands for this setting: concentration 1 x 10⁻⁵ g/ml in perfusion medium.

On to `Cc1nc(-c2ccccc2)cc(-c2cccc([N+](=O)[O-])c2)c1C(=O)NCCN1CCOCC1` [(a), 3-(2-Morpholinoethylcarbamoyl)-2-methyl-4-(3-nitrophenyl)-6-phenylpyridine], for which the “Inhibition (%) of incidence as compared with control group Mortality” value in the experiment with Male SD rats [1] (dose 1.0 mg/kg intravenously) came to 13.5%; in the experiment with Male SD rats [1] (dose 3.2 mg/kg intravenously), 52.5%; in the experiment with Male SD rats [1] (dose 10 mg/kg intravenously), 78.9%. Further, the results for the “Inhibition (%) of incidence as compared with control group VF” value in the experiment with Male SD rats [1] (dose 1.0 mg/kg intravenously), in the experiment with Male SD rats [1] (dose 3.2 mg/kg intravenously) and with Male SD rats [1] (dose 10 mg/kg intravenously) were 28.0%, 60.4% and 82.4%, respectively. Also, the “Inhibition (%) of incidence as compared with control group VT” value stood at 0% in the experiment on Male SD rats [1] (dose 1.0 mg/kg intravenously), 0% with Male SD rats [1] (dose 3.2 mg/kg intravenously) and 5.6% in the experiment with Male SD rats [1] (dose 10 mg/kg intravenously). Further, the “Inhibition (%) of mortality” value in the experiment on Male SD rats [2] (after 24 hours, % change as compared with mortality rate in control group) is 75%. Moreover, in the experiment on Male SD rats [2] (myocardial ATP of surviving rats after 24 hours), the “Recovery (%) of ATP content” value was found to be 67%. Further, the “Inhibition (%) of foot edema” value with male ddY mice (dose 0.1 mg/kg intravenously) came to 12%; in the experiment with male ddY mice (dose 1.0 mg/kg intravenously), 30%; in the experiment with male ddY mice (dose 10 mg/kg intravenously), 42%. Moreover, the “% change from control coronary flow” value in experiment [3] (concentration 1 x 10⁻⁵ g/ml) is recorded as 32.0%; in experiment [3] (concentration 1 x 10⁻⁶ g/ml) it was -1.6%. Besides, the “% change from control Cardiac depression (pre-ischemia) LVSP x HR” value (from here on “% change from control Cardiac depression”) is given as -1.7% in experiment [3] (setting [4]) and 4.1% in experiment [3] (concentration 1 x 10⁻⁶ g/ml in perfusion medium). Further, the “% change from control recovery of ATP content (% increase)” value (shortened to “% change … (% increase)”) is recorded as 89.5% in experiment [3] (concentration 1 x 10⁻⁵ g/ml) and 96.3% in experiment [3] (concentration 1 x 10⁻⁶ g/ml).

`CN1CCN(Cc2nnc(-c3ccccc3)cc2-c2cccc([N+](=O)[O-])c2)CC1` [(b), 3-(4-Methylpiperazin-1-ylmethyl)-4-(3-nitrophenyl)-6-phenylpyridazine]: in experiment [3] (concentration 1 x 10⁻⁵ g/ml), the “% change from control coronary flow” value was -30.6% and the “% change … (% increase)” value is recorded as 100.4%. Besides, the “% change from control Cardiac depression” value in experiment [3] (setting [4]) was -95.8%.

In the case of `Cc1cc(-c2ccccc2)nc(-c2cccc([N+](=O)[O-])c2)c1C(=O)NCCN1CCOCC1` [(c), 4-Methyl-3-(2-morpholinoethylcarbamoyl)-2-(3-nitrophenyl)-6-phenylpyridine], in experiment [3] (concentration 1 x 10⁻⁵ g/ml), the “% change from control coronary flow” value stood at 31.9% and the “% change … (% increase)” value came to 71.3%. Also, the “% change from control Cardiac depression” value in experiment [3] (setting [4]) is recorded as -38.9%.

In the case of `Cc1nc(-c2ccccc2)cc(-c2cccc([N+](=O)[O-])c2)c1C(=O)N1CCN(C)CC1` [(d), 2-Methyl-3-(4-methylpiperazin-1-ylcarbonyl)-4-(3-nitrophenyl)-6-phenylpyridine], in the experiment with male ddY mice (dose 1.0 mg/kg intravenously), the “Inhibition (%) of foot edema” value came out at 41.5%. For the same molecule, in experiment [3] (concentration 1 x 10⁻⁵ g/ml), the “% change from control coronary flow” value amounted to 5.0% and the “% change … (% increase)” value is 123.6%. Besides, the “% change from control Cardiac depression” value in experiment [3] (setting [4]) is -29.7%.

As for `Cc1nc(-c2ccccc2)cc(-c2cccc([N+](=O)[O-])c2)c1C(=O)NCCN(C)C` [(e), 3-(2-Dimethylaminoethylcarbamoyl)-2-methyl-4-(3-nitrophenyl)-6-phenylpyridine], in experiment [3] (concentration 1 x 10⁻⁵ g/ml), the “% change from control coronary flow” value was -10.2% and the “% change … (% increase)” value is reported as 76.3%. Also, in experiment [3] (setting [4]), the “% change from control Cardiac depression” value is -90.6%.

Turning to `Cc1nc(-c2ccccc2)cc(-c2cccc([N+](=O)[O-])c2)c1C(=O)NCCN1CCSCC1.O=C(O)/C=C/C(=O)O` [(f), 2-Methyl-4-(3-nitrophenyl)-6-phenyl-3-[2-(4-thiomorpholinyl)ethylcarbamoyl]pyridine fumarate], in the experiment with male ddY mice (dose 1.0 mg/kg intravenously), the “Inhibition (%) of foot edema” value is reported as 22%. In experiment [3] (concentration 1 x 10⁻⁵ g/ml), the “% change from control coronary flow” value is recorded as 22.5% and the “% change … (% increase)” value was 64.9%. Further, the “% change from control Cardiac depression” value in experiment [3] (setting [4]) is recorded as -45.2%.

As for `Cc1nc(-c2ccccc2)cc(-c2cccc([N+](=O)[O-])c2)c1NC(=O)NCCN(C)C` [(g), 3-[3-(2-Dimethylaminoethyl)ureido]-2-methyl-4-(3-nitrophenyl)-6-phenylpyridine], in experiment [3] (concentration 1 x 10⁻⁵ g/ml), the “% change from control coronary flow” value is listed as -42.7% and the “% change … (% increase)” value is given as 78.6%. Moreover, the “% change from control Cardiac depression” value in experiment [3] (setting [4]) is recorded as -85.7%.
